In data set [1] the test system is spontaneous uterine contractions. The conditions noted are these: anesthetized late-term pregnant rats, cited from earlier work.
Another data set concerns the target CYP2D6 (Homo sapiens, UniProt P10635). Description: metabolism by CYP2D6 isoform. The conditions noted are these: for Compound Remaining (% of compound present at t = 0 min): 5 μM. The data set is classed as in vitro ADME. How it is done:
(§1) At five time points over the course of a 45 minute experiment, the compounds were analyzed by LC-MS/MS. The percentage of each compound remaining at each time point, along with the metabolic half-lives of each compound in the presence of each cytochrome P450 isoform, are indicated in Tables 10-12, below.

Another data set concerns cytochrome P450. Description: microsomal stability, pooled liver microsomes, cytochrome P450 alone. The data set is classed as in vitro ADME. The conditions noted are these: 45 minute experiment. As for the experimental part:
At five time points over the course of a 45 minute experiment, the compounds were analyzed by liquid chromatography and tandem mass spectrometry (LC-MS/MS). Intrinsic clearance values (CLint) with standard error (SE CLint) and metabolic half-life (t1/2) were calculated and are indicated in Table 9, below.
(In general: Microsomes from liver hold many membrane-bound enzymes, among them those of drug oxidation.)

A further data set deals with CYP2C19 (Homo sapiens, UniProt P33261). Description: metabolism by CYP2C19 isoform. The data set is classed as in vitro ADME. Conditions: for Compound Remaining (% of compound present at t = 0 min): 5 μM. As for the experimental part: as §1
Sequence of CYP2C19 (P33261 whole entry, canonical isoform): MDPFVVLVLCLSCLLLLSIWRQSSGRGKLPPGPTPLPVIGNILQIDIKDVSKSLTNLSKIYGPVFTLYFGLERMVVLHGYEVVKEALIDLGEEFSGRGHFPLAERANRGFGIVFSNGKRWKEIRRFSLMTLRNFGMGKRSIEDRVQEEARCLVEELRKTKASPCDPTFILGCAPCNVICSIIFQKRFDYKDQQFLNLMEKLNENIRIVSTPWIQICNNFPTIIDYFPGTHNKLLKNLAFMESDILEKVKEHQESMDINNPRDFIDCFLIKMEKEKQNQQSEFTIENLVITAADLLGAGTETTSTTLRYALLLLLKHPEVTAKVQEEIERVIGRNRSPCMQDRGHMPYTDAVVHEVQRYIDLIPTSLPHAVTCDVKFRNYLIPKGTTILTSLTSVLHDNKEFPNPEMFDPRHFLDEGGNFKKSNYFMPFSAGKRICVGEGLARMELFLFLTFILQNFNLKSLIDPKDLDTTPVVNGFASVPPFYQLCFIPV
The target in the next data set is CYP3A4 (Homo sapiens, UniProt P08684). As to the kind of experiment: metabolism by CYP3A4 isoform. The data set is classed as in vitro ADME. The conditions noted are these: for Compound Remaining (% of compound present at t = 0 min): 5 μM. How it is done: as §1
Sequence of CYP3A4 (P08684 whole entry, canonical isoform): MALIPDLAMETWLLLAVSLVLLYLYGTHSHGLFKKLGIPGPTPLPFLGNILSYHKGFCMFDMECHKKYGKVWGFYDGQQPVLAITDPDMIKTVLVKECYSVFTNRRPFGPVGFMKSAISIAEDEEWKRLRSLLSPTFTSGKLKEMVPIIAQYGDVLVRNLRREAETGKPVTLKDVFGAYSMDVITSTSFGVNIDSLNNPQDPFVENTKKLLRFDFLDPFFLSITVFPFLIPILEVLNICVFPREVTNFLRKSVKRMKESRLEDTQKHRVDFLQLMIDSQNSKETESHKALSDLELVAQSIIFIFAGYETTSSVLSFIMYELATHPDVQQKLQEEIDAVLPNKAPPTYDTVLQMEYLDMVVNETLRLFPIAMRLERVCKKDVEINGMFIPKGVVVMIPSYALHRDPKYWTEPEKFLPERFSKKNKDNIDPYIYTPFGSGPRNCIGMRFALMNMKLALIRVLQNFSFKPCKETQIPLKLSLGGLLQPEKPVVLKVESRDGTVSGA

Here are results for one compound from US20190247361A1, “OXYTOCIN ANTAGONIST DOSING REGIMENS FOR PROMOTING EMBRYO IMPLANTATION AND PREVENTING MISCARRIAGE” (ObsEva S.A., priority 2016, published 2019).

Sequence of CYP2D6 (P10635 whole entry, canonical isoform): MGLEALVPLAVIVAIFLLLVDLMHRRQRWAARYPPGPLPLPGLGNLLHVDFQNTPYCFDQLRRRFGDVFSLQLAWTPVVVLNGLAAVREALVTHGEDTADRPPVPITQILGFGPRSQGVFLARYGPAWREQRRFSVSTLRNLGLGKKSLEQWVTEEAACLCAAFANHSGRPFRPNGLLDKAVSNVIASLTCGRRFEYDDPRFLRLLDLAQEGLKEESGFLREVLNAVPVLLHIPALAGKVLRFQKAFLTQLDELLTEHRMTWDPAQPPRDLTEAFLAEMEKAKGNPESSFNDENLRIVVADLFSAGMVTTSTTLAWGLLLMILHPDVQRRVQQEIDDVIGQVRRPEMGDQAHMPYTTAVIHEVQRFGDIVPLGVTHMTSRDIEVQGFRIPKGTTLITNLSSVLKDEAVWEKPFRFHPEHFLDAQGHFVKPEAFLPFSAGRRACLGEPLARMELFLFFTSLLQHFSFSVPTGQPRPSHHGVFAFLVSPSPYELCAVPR

Turning to `CO/N=C1/C[C@@H](CO)N(C(=O)c2ccc(-c3ccccc3C)cc2)C1` [Compound (II), (3Z,5S)-5-(hydroxymethyl)-1-[(2′-methyl-1,1′-biphenyl-4-yl)carbonyl]pyrrolidin-3-one O-methyloxime], the “effect on spontaneous uterine contractions” value in data set [1] (10, 30, and 60 mg/kg) is “dose-dependent reduction in spontaneous uterine contractions”. Also, the “Inhibition of spontaneous uterine contractions” value in data set [1] (from 170 to 180 minutes after oral administration at a dose of 60 mg/kg) was “about 42%”. Also, the “Compound Remaining (% of compound present at t = 0 min)” value on CYP2D6 (0 min) was 100%; at CYP2D6 (5 min), 80.3%; at CYP2D6 (15 min), 50.5%; at CYP2D6 (30 min), 22.5%; at CYP2D6 (45 min), 12.2%; at CYP2C19 (0 min), 100%. Further, the “Compound Remaining (% of compound present at t = 0 min)” value on CYP2C19 (5 min) worked out at 93.7%; on CYP2C19 (15 min), 79.1%; on CYP2C19 (30 min), 67.8%; at CYP2C19 (45 min) it was 59.9%; at CYP3A4 (0 min) it was 100%; on CYP3A4 (5 min), 86.5%. In addition, the “Compound Remaining (% of compound present at t = 0 min)” value on CYP3A4 (15 min) was determined as 75.9%; at CYP3A4 (30 min) it was 67.3%; on CYP3A4 (45 min) it was 63.9%. The half-life at 5 μM on CYP2D6 (human) turned out to be 0.242 h; at CYP2C19 (human), 1.01 h; on CYP3A4 (human), 1.23 h. Also, in the data set on cytochrome P450 (read-out: CLint, Metabolic Stability - CYP), the microsomal CLint at 3 μM was determined as 11.6 µL/min/mg. Besides, the half-life at 3 μM with cytochrome P450 (read-out: t1/2, Metabolic Stability - CYP) amounted to 2 h.
